What was measured:
[1] = test system: barley; assay: Growth height of barley, greenhouse (Example 9); assay type: in vivo, barley (Villa); conditions: for Plant height relative: control 100
Source text: (§1) In the greenhouse, the four cereals wheat ("Opal" variety), rye ("Petkuser"), barley ("Villa") and oats ("Flamingskrone") were sown in plastic dishes 11.5 cm in diameter in a sandy loam adequately supplied with nutrients. The active ingredients were applied at various rates to the soil and to the leaves. When applied to the soil, the active ingredient were sprayed onto the surface of the soil on the day of sowing; in the case of leaf treatment, the leaves were sprayed in the usual manner at a growth height of the plants of 10 cm. During the 18 day growth period, the treated plants grew much more slowly than the untreated control, a fact later confirmed by measurements of the stem length. Measurements were taken of 100 plants from each series.
(§2) The prior art agent used for comparison purposes was N-2-chloroethyl-N,N,N-trimethylammonium chloride (CCC; German Printed Application DAS No. 1,294,734).

[2] = test system: rye; assay: Growth height of rye, greenhouse (Example 8); assay type: in vivo, rye (Petkuser); conditions: leaf; for Plant height relative: control 100
Source text: as §1, §2

[3] = test system: wheat; assay: Growth height of wheat, greenhouse (Example 7); assay type: in vivo, wheat (Opal variety); conditions: for Plant height relative: control 100
Source text: as §1, §2

[4] = test system: oats; assay: Growth height of oats, greenhouse (Example 10); assay type: in vivo, oats (Flamingskrone); conditions: leaf; for Plant height relative: control 100
Source text: as §1, §2

[5] = test system: lawns; assay: Long-term action on lawns (Example 14); assay type: in vivo; conditions: for First cutting, green weight relative / First cutting, growth height relative / Second cutting, green weight relative / Second cutting, growth height relative / Third cutting, green weight relative: control 100

Compound: Clc1ccc(N2N=NC3C4CC(C5N=NC45)C32)cc1 (centres unmarked) [drawing 354]
- Plant height ([1]; leaf, 0.125 kg/ha): 24.0 cm
- Plant height relative ([1]; leaf, 0.125 kg/ha): 80.0
- Plant height ([1]; leaf, 0.5 kg/ha): 23.0 cm
- Plant height relative ([1]; leaf, 0.5 kg/ha): 76.7
- Plant height ([1]; leaf, 1.0 kg/ha): 21.5 cm
- Plant height relative ([1]; leaf, 1.0 kg/ha): 71.7
- Plant height ([1]; leaf, 2.0 kg/ha): 20.5 cm
- Plant height relative ([1]; leaf, 2.0 kg/ha): 68.3
- Plant height ([1]; leaf, 4.0 kg/ha): 18.5 cm
- Plant height relative ([1]; leaf, 4.0 kg/ha): 61.7

Compound: Brc1ccc(N2N=NC3C4CC(C5N=NC45)C32)cc1 (centres unmarked) [drawing 355]
- Plant height ([1]; leaf, 0.125 kg/ha): 25.5 cm
- Plant height relative ([1]; leaf, 0.125 kg/ha): 85.0
- Plant height ([1]; leaf, 0.5 kg/ha): 23.5 cm
- Plant height relative ([1]; leaf, 0.5 kg/ha): 78.3
- Plant height ([1]; leaf, 1.0 kg/ha): 22.0 cm
- Plant height relative ([1]; leaf, 1.0 kg/ha): 73.3
- Plant height ([1]; leaf, 2.0 kg/ha): 20.5 cm
- Plant height relative ([1]; leaf, 2.0 kg/ha): 68.3
- Plant height ([1]; leaf, 4.0 kg/ha): 20.0 cm
- Plant height relative ([1]; leaf, 4.0 kg/ha): 66.7

Compound: Brc1ccc(N2N=NC3C4CC(C5N=NC45)C32)cc1 (centres unmarked) [drawing 351]
- Plant height ([2]; 0.125 kg/ha): 25.0 cm
- Plant height relative ([2]; 0.125 kg/ha): 84.7
- Plant height ([2]; 0.5 kg/ha): 20.5 cm
- Plant height relative ([2]; 0.5 kg/ha): 69.5
- Plant height ([2]; 1.0 kg/ha): 22.0 cm
- Plant height relative ([2]; 1.0 kg/ha): 74.6
- Plant height ([2]; 2.0 kg/ha): 18.0 cm
- Plant height relative ([2]; 2.0 kg/ha): 61.0
- Plant height ([2]; 4.0 kg/ha): 18.5 cm
- Plant height relative ([2]; 4.0 kg/ha): 62.7

Compound: Clc1ccc(N2N=NC3C4CC(C5N=NC45)C32)cc1 (centres unmarked) [drawing 350]
- Plant height ([2]; 0.125 kg/ha): 24.5 cm
- Plant height relative ([2]; 0.125 kg/ha): 83.1
- Plant height ([2]; 0.5 kg/ha): 20.0 cm
- Plant height relative ([2]; 0.5 kg/ha): 67.8
- Plant height ([2]; 1.0 kg/ha): 18.5 cm
- Plant height relative ([2]; 1.0 kg/ha): 62.7
- Plant height ([2]; 2.0 kg/ha): 17.5 cm
- Plant height relative ([2]; 2.0 kg/ha): 59.3
- Plant height ([2]; 4.0 kg/ha): 16.0 cm
- Plant height relative ([2]; 4.0 kg/ha): 54.2

Compound: Brc1ccc(N2N=NC3C4CC(C5N=NC45)C32)cc1 (centres unmarked) [drawing 347]
- Plant height ([3]; leaf, 0.125 kg/ha): 25.0 cm
- Plant height relative ([3]; leaf, 0.125 kg/ha): 83.3
- Plant height ([3]; leaf, 0.5 kg/ha): 23.5 cm
- Plant height relative ([3]; leaf, 0.5 kg/ha): 78.3
- Plant height ([3]; leaf, 1.0 kg/ha): 21.0 cm
- Plant height relative ([3]; leaf, 1.0 kg/ha): 70.0
- Plant height ([3]; leaf, 2.0 kg/ha): 21.5 cm
- Plant height relative ([3]; leaf, 2.0 kg/ha): 71.7
- Plant height ([3]; leaf, 4.0 kg/ha): 20.0 cm
- Plant height relative ([3]; leaf, 4.0 kg/ha): 66.7

Compound: Clc1ccc(N2N=NC3C4CC(C5N=NC45)C32)cc1 (centres unmarked) [drawing 352]
- Plant height ([1]; soil, 0.5 kg/ha): 28.0 cm
- Plant height relative ([1]; soil, 0.5 kg/ha): 88.9
- Plant height ([1]; soil, 1.0 kg/ha): 28.0 cm
- Plant height relative ([1]; soil, 1.0 kg/ha): 88.9
- Plant height ([1]; soil, 2.0 kg/ha): 23.5 cm
- Plant height relative ([1]; soil, 2.0 kg/ha): 74.6
- Plant height ([1]; soil, 6.0 kg/ha): 16.5 cm
- Plant height relative ([1]; soil, 6.0 kg/ha): 52.4

Compound: Clc1ccc(N2N=NC3C4CC(C5N=NC45)C32)cc1 (centres unmarked) [drawing 344]
- Plant height ([3]; soil, 0.5 kg/ha): 28.5 cm
- Plant height relative ([3]; soil, 0.5 kg/ha): 91.9
- Plant height ([3]; soil, 1.0 kg/ha): 23.0 cm
- Plant height relative ([3]; soil, 1.0 kg/ha): 74.2
- Plant height ([3]; soil, 2.0 kg/ha): 20.5 cm
- Plant height relative ([3]; soil, 2.0 kg/ha): 66.1
- Plant height ([3]; soil, 6.0 kg/ha): 10.5 cm
- Plant height relative ([3]; soil, 6.0 kg/ha): 33.9

Compound: Brc1ccc(N2N=NC3C4CC(C5N=NC45)C32)cc1 (centres unmarked) [drawing 359]
- Plant height ([4]; 0.125 kg/ha): 25.5 cm
- Plant height relative ([4]; 0.125 kg/ha): 91.1
- Plant height ([4]; 0.5 kg/ha): 25.0 cm
- Plant height relative ([4]; 0.5 kg/ha): 89.3
- Plant height ([4]; 1.0 kg/ha): 22.5 cm
- Plant height relative ([4]; 1.0 kg/ha): 80.4
- Plant height ([4]; 2.0 kg/ha): 22.5 cm
- Plant height relative ([4]; 2.0 kg/ha): 80.4
- Plant height ([4]; 4.0 kg/ha): 22.0 cm
- Plant height relative ([4]; 4.0 kg/ha): 78.6

Compound: Fc1ccc(N2N=NC3C4CC(C5N=NC45)C32)cc1 (centres unmarked)
- First cutting, green weight ([5]; 0.5 kg/ha): 23.1 g
- First cutting, growth height ([5]; 0.5 kg/ha): 15.0 cm
- Second cutting, green weight ([5]; 0.5 kg/ha): 21.8 g
- Second cutting, growth height ([5]; 0.5 kg/ha): 10.0 cm
- Third cutting, green weight ([5]; 0.5 kg/ha): 14.6 g
- First cutting, green weight relative ([5]; 0.5 kg/ha): 65.4
- First cutting, growth height relative ([5]; 0.5 kg/ha): 83.3
- Second cutting, green weight relative ([5]; 0.5 kg/ha): 81.6
- Second cutting, growth height relative ([5]; 0.5 kg/ha): 68.0
- Third cutting, green weight relative ([5]; 0.5 kg/ha): 96.1
- First cutting, green weight ([5]; 1.0 kg/ha): 20.5 g
- First cutting, growth height ([5]; 1.0 kg/ha): 12.5 cm
- Second cutting, green weight ([5]; 1.0 kg/ha): 21.4 g
- Second cutting, growth height ([5]; 1.0 kg/ha): 9.0 cm
- Third cutting, green weight ([5]; 1.0 kg/ha): 13.5 g
- First cutting, green weight relative ([5]; 1.0 kg/ha): 58.1
- First cutting, growth height relative ([5]; 1.0 kg/ha): 69.5
- Second cutting, green weight relative ([5]; 1.0 kg/ha): 80.1
- Second cutting, growth height relative ([5]; 1.0 kg/ha): 61.2
- Third cutting, green weight relative ([5]; 1.0 kg/ha): 88.8
- First cutting, green weight ([5]; 2.0 kg/ha): 9.8 g
- First cutting, growth height ([5]; 2.0 kg/ha): 7.5 cm
- Second cutting, green weight ([5]; 2.0 kg/ha): 10.1 g
- Second cutting, growth height ([5]; 2.0 kg/ha): 5.0 cm
- Third cutting, green weight ([5]; 2.0 kg/ha): 9.5 g
- First cutting, green weight relative ([5]; 2.0 kg/ha): 27.8
- First cutting, growth height relative ([5]; 2.0 kg/ha): 41.7
- Second cutting, green weight relative ([5]; 2.0 kg/ha): 37.8
- Second cutting, growth height relative ([5]; 2.0 kg/ha): 34.0
- Third cutting, green weight relative ([5]; 2.0 kg/ha): 62.5
- First cutting, green weight ([5]; 4.0 kg/ha): 7.9 g
- First cutting, growth height ([5]; 4.0 kg/ha): 6.5 cm
- Second cutting, green weight ([5]; 4.0 kg/ha): 7.1 g
- Second cutting, growth height ([5]; 4.0 kg/ha): 2.0 cm
- Third cutting, green weight ([5]; 4.0 kg/ha): 7.9 g
- First cutting, green weight relative ([5]; 4.0 kg/ha): 22.4
- First cutting, growth height relative ([5]; 4.0 kg/ha): 36.1
- Second cutting, green weight relative ([5]; 4.0 kg/ha): 26.6
- Second cutting, growth height relative ([5]; 4.0 kg/ha): 13.6
- Third cutting, green weight relative ([5]; 4.0 kg/ha): 52.0

— US4257941A, “Polycyclic nitrogen-containing compounds” (BASF Aktiengesellschaft, priority 1976, dated 1981)
